Experimental data as given in US9248134B1, “Fe(III) complex compounds for the treatment and prophylaxis of iron deficiency symptoms and iron deficiency anemias” (Vifor (International) AG, priority 2013, dated 2016).

These substances were tested on Male NMRI (SPF) mice fed a low-iron diet (assay: Iron utilization in mouse model (low-iron diet)). Details: stomach tube, 2 mg iron/kg body weight/day, days 1-5 and 8-12; utilization on day 15 calculated from hemoglobin increase and body weight increase.
Type: in vivo
Protocol: The excellent Fe utilizations that can be accomplished through the Fe complexes according to the invention were measured by means of the following mouse model.
Male NMRI (SPF) mice (approximately 3 weeks old) were fed a low-iron diet (approx. 5 ppm iron) for approximately 3 weeks. The iron complexes were then administered to them by means of a stomach tube (2 mg iron/kg body weight/day) for 2 times 5 days, with an interruption of 2 days (days 1-5 and 8-12). 6 mice were the control group (negative control) and were administered with water instead. Utilization on day 15 was calculated from the hemoglobin increase and the body weight increase in accordance with the formula
[formula] • 0.07=Factor for 70 ml blood per kg body weight (BW) • 0.0034=Factor for 0.0034 g Fe/g Hb • Hb1=Hemoglobin level (g/l) on day 1 • Hb2(3)=Hemoglobin level (g/l) on day 8 (or 15) • BW4=body weight (g) on day 1 • BW9(14)=body weight (g) on day 8 (or 15) • Hb1 Control=average hemoglobin level (g/l) on day 1 in the control group, • Hb2(3) Control=average hemoglobin level (g/l) on day 8 (or 15) in the control group, • BW4 Control=average body weight (g) on day 1 in the control group, • BW9(14) Control=average body weight (g) on day 8 (or 15) in the control group, • Fe Dos.=entire administered iron (mg Fe) over 5 or 10 days, • Fe ut.=(Hb2(3)*BW9(14)−Hb1*BW4)*0.07*0.0034 (mg Fe) • Δ Utilization=Fe tot. utilized (examined group)−Fe ut. Control group, utilized from food, (mg Fe)
In the case of “Tris-(3-hydroxy-N,N-dimethylisonicotinamide) iron(III) complex [Example 1]”, the “Utilization n 15 d (abs. %)” value is reported as 68 abs. %.
With “Tris-(N-butyl-3-hydroxyisonicotinamide) iron(III) complex [Example 6]” the “Utilization n 15 d (abs. %)” value was 76 abs. %.
With “Tris-(3-hydroxy-N-(2-methoxyethyl)isonicotinamide) iron(III) complex [Example 7]” the “Utilization n 15 d (abs. %)” value was 76 abs. %.
